Legend:
Type in all cases: physicochemical
[1] = Maximum absorption wavelength and absorbance ratio of cured film; settings: cured film 1.0 μm, Resin 1
Experimental: (§1) A maximum absorption wavelength of each film and an absorbance ratio as a value obtained by dividing an absorbance at a wavelength of 555 nm by an absorbance at the maximum absorption wavelength were measured using a spectrophotometer U-4100 (manufactured by Hitachi High-Technologies Corporation).
(§2) A near-infrared absorption composition was prepared by mixing according to the following composition. The solid content of the composition was 31 mass %, and the content of the near-infrared absorption substance with respect to the total solid content of the composition was 7.5 mass %.
(§3) Each composition was applied to a glass substrate (1737 manufactured by Corning Inc.) using a spin coater such that a film thickness after drying was 1.0 μm, and a heating treatment (pre-baking) was performed thereon for 120 seconds using a hot plate at 100° C.
(§4) Next, entire surface exposure was performed at 500 mJ/cm2 using an i-ray stepper exposure device FPA-3000i5+(manufactured by Canon Inc.). Next, paddle development was performed for 60 seconds at 23° C. using a developing machine (CD-2060, manufactured by FUJIFILM Electronics Materials Co., Ltd.), and a rinsing treatment was performed with pure water. Then, spray drying was performed thereon. Using a hot plate at 200° C., a heating treatment (post-baking) was performed for 300 seconds to obtain a cured film.

[2] = Solubility of compound to propylene glycol monomethyl ether acetate (PGMEA); settings: PGMEA at 25° C.
Experimental: The solubility of each compound to propylene glycol monomethyl ether acetate (PGMEA) at 25° C. was evaluated based on the following standards.
A: The solubility of the compound to PGMEA at 25° C. is 2 mass % or greater.

[3] = Maximum absorption wavelength and absorbance ratio of film formed from near-infrared absorption composition; settings: film on glass
Experimental: A near-infrared absorption composition was prepared by mixing according to the following composition.
Each composition was applied to a glass substrate (1737 manufactured by Corning Inc.) using a spin coater, and a heating treatment was performed thereon for 120 seconds using a hot plate at 120° C.
as §1

[4] = Visible transparency evaluation of cured film; settings: cured film 1.0 μm, Resin 1, minimum transmittance at 500 to 600 nm
Experimental: as §2, §3, §4
The transmittance of each cured film at a wavelength of 500 to 600 nm was measured using a spectrophotometer U-4100 (manufactured by Hitachi High-Technologies Corporation). The visible transparency was evaluated based on the following standards.
A: 80% 5 Minimum value of transmittance at wavelength of 500 to 600 nm
B: 70%: Minimum value of transmittance at wavelength of 500 to 600 nm<80%
C: 60%: Minimum value of transmittance at wavelength of 500 to 600 nm<70%
D: Minimum value of transmittance at wavelength of 500 to 600 nm<60%

[5] = Near-infrared shieldability evaluation of cured film; settings: cured film 1.0 μm, Resin 1, transmittance at 785 nm
Experimental: as §2, §3, §4
The transmittance of each cured film at the maximum absorption wavelength was measured using a spectrophotometer U-4100 (manufactured by Hitachi High-Technologies Corporation). The near-infrared shieldability was evaluated based on the following standards.
A: Transmittance at 785 nm≦10%
D: 40%<Transmittance at 785 nm

[6] = Resin A (benzyl methacrylate/methyl methacrylate copolymer), 120° C. 120 seconds

Compound | Absorbance Ratio (555 nm/λmax) [1] | Maximum Absorption Wavelength [1] | Solubility [2] | Solubility (in words) [2] | Absorbance Ratio (555 nm/λmax) ([3]; Resin A) | Maximum Absorption Wavelength [3, 6] | Visible Transparency [4] | Near-Infrared Shieldability [5] | Absorbance Ratio (555 nm/λmax) ([3]; Resin B (polycaprolactone)) | Maximum Absorption Wavelength ([3]; Resin B (polycaprolactone))
CCCCCCCCOc1ccc(-c2c3/c(=C(\C#N)c4nc(C)cc(C)n4)n(B(c4ccccc4)c4ccccc4)c(-c4ccc(OCCCCCCCC)cc4)c3/c(=C(\C#N)c3nc(C)cc(C)n3)n2B(c2ccccc2)c2ccccc2)cc1 [Compound A-12] | 0.10 | 762 nm | B (The solubility of the compound to PGMEA at 25 °C is 0.5 mass % to less than 2 mass %.) | excellent solubility | 0.10 | 763 nm | B (70%: Minimum value of transmittance at wavelength of 500 to 600 nm<80%) | B (10%<Transmittance at 785 nm≦25%) |  | 
CCCCCCCCOc1ccc(-c2c3/c(=C(\C#N)c4cc5cc(C(C)(C)C)ccc5cn4)n(B(c4ccccc4)c4ccccc4)c(-c4ccc(OCCCCCCCC)cc4)c3/c(=C(\C#N)c3cc4cc(C(C)(C)C)ccc4cn3)n2B(c2ccccc2)c2ccccc2)cc1 [Compound A-100] | 0.12 | 855 nm | C (The solubility of the compound to PGMEA at 25 °C is less than 0.5 mass %.) |  | 0.11 | 860 nm | B (70%: Minimum value of transmittance at wavelength of 500 to 600 nm<80%) | D (40%<Transmittance at 785 nm) | 0.11 | 863 nm
COB(OC)n1c(-c2ccccc2-c2ccccc2)c2/c(=C(\C#N)c3nc4ccc(Cl)cc4o3)n(B(OC)OC)c(-c3ccccc3-c3ccccc3)c2/c1=C(\C#N)c1nc2ccc(Cl)cc2o1 [Compound D-5] | 0.15 | 780 nm |  |  | 0.14 | 790 nm | C (60%: Minimum value of transmittance at wavelength of 500 to 600 nm<70%) | B (10%<Transmittance at 785 nm≦25%) |  | 

From patent publication US20170351014A1, “NEAR-INFRARED ABSORPTION COMPOSITION, CURED FILM, NEAR-INFRARED ABSORPTION FILTER, SOLID-STATE IMAGING DEVICE, AND INFRARED SENSOR” (FUJIFILM Corporation, priority 2015, published 2017)
